Assay results as given in patent publication US20230346827A1 (priority 2020, published 2023).

How the values were obtained:
[1] = tested on: plasma hepatocyte growth factor (HGF); assay: Plasma HGF (ELISA) in ALS patients after s.c. LMW-DS 1 mg/kg weekly (Example 2); format: in vivo, human; conditions: 1 mg/kg s.c.
Protocol: This was a single-center, open single-arm study where the safety, tolerability and efficacy of subcutaneous (s.c.) administered LMW-DS was evaluated in patients with ALS. There were 10 planned visits to the clinic: 1 screening visit divided in 2 parts (Visit 1a and Visit 1b), 5 investigational medicinal product (IMP) administration visits (Visit 2 to Visit 6) and 3 follow-up visits (Visit 7 to Visit 9). Each individual patient’s study participation was planned to be approximately 4 months, including the screening and follow-up visits.
The active pharmaceutical ingredient of the IMP was a low molecular weight dextran sulfate (LMW-DS), (ILB®, Tikomed AB, Viken, Sweden, WO 2016/076780). The drug was used as a solution for s.c. injection and consisted of 20 mg/mL LMW-DS and 9 mg/mL NaCl. Each glass vial contained 10 mL. The dose administered depended on the patient’s body weight at Visit 2, prior to the first LMW-DS administration. LMW-DS was injected s.c. on alternating sides of the abdomen, thigh or the buttock (in that order of priority). Five injections of 1 mg/kg, with 1 week dosing interval, were administered. Changes in immunoreactive HGF were measured by commercial ELISA (R&D HGF ELISA) from blood samples taken at each visit.

[2] = tested on: Mouse motor neurons; assay: Gene expression array and pathway analysis, motor neurons, LMW-DS 0.01 mg/ml 48 h; format: cell-based; conditions: for number of genes: abolished nutrient effect / number of genes: new effect induced by LMW-DS / number of genes: total / number of genes: enhanced response to nutrients / number of genes: not different from control / Activation z-score / Predicted activation state relative D2 control: motor neurons; for Activation z-score / Predicted activation state relative D2 control: D0 to LMW-DS treatment
Protocol: For each cell line, n=8 × 25 cm^2 culture flasks were set up. Two flasks were harvested for each cell type on the day of treatment (24 hours after seeding). This represents the Day0 time point. From the remaining flasks, three flasks were treated with Control Medium and three were treated with Culture Medium (CM) containing LMW-DS to give a final concentration of 0.01 mg/ml. Cells from the treated flasks were collected after 48 hours. Therefore the collected data represent (a) untreated cells (Day0 Controls and Day2 Controls) and (b) cells treated with LMW-DS (ILB®, Tikomed AB, Viken, Sweden, WO 2016/076780) for 48 hours (Day2 LMW-DS treated).
The culture medium was prepared according to Table 28.
Medium (see Table 28) was pre-warmed to 37° C. Cells were thawed in a 37° C. water bath for no longer than 2 min. 9 ml of media was gently added drop-wise. The cell suspension was mixed by inverting the tube carefully twice. The cells were counted with a Cellometer. The cells were centrifuged for 5 minutes at 200 x g. Supernatant was removed (to the last 0.5 ml) and cells were gently re-suspended by trituration. The cells from the 8 vials were mixed and distributed equally into the previously coated 25 cm^2 flasks (n=8). Cells were incubated at 37° C. with 5% CO2 for 24 hours before treatment.
LMW-DS was provided at a stock concentration of 20 mg/ml and was kept in a temperature monitored refrigerator at 4° C. A fresh 100x LMW-DS stock (1.0 mg/ml) was prepared in sterile DMEM-F12. The concentrated drug stock was sterile filtered and added to the respective culture media (19.6 ml CM and 0.4 ml LMW-DS stock solution). The Control was made using 19.6 ml CM and 0.4 ml of DMEM-F12. LMW-DS and CM were added to the respective flasks (5 ml each) to reach the 0.01 mg/ml concentration of LMW-DS in each dish with a total of 10 ml CM each.
CM was aspirated into a clean and labelled 15 ml Falcon tube. The flasks (without culture medium) were placed into the -80° C. freezer for 30 minutes. The CM in the Falcon tubes was spun at 3000 x g for 5 minutes. Supernatant was removed and the small pellet was re-suspended in 2.5 ml Trizol:Water (4:1) solution at room temperature (RT, ~22° C.).
Two aliquots of 1 ml lysate were removed from each sample and 200 µl of chloroform was added to each (0.2 ml of chloroform per 1 ml of TRIzol Reagent used during the cell lysis step) and the tube was shaken vigorously. Samples were stored at RT for 2-3 minutes and subsequently centrifuged at 12,000 x g for 15 minutes at 4° C.
The RNA was precipitated from the aqueous phase by adding an equal amount of 100% ethanol. The precipitated RNA was fixed onto a Spin Cartridge, washed twice and dried. The RNA was eluted in 50 µl warm RNase-Free Water. The amount and quality of the purified RNA was measured by Nanodrop. The RNA was stored at -80° C. before transfer to Source Bioscience for Array analysis.
The expression data were downloaded into separate files for each cell line. The ‘Background corrected’ expression is the data from the “gProcessedSignal” of the arrays that is the result of the background signal extracted from the actual signal of the relevant probe. This is the most often used variable in array analysis. The background corrected signal was log2 transformed for all samples for statistical analysis. To reduce the false discovery rate in the samples, the signals that were below ‘expression level’ were removed. The ‘below expression’ level was set at 5 for the log2 transformed expression values.
Based on the expression pattern of the Control probes on each array it was decided to carry out Median Centering for all arrays before analysis to reduce the variability of the results. […]

[3] = pathway analysis of gene expression

Substance: sodium salt of dextran sulfate [LMW-DS]
- time of maximum peak of plasma HGF after LMW-DS administration [1]: about 2 hr
- number of differentially expressed genes ([2]; D0 control to D2 LMW-DS treated): 315
- number of differentially expressed genes ([2]; D0 control to D2 LMW-DS treated (second statement)): 425
- number of genes: abolished nutrient effect ([2]; no effect): 177
- number of genes: new effect induced by LMW-DS ([2]; no effect): 108
- number of genes: total ([2]; no effect): 285
- number of genes: abolished nutrient effect ([2]; significant downregulation): 47
- number of genes: enhanced response to nutrients ([2]; significant downregulation): 36
- number of genes: new effect induced by LMW-DS ([2]; significant downregulation): 375
- number of genes: not different from control ([2]; significant downregulation): 104
- number of genes: total ([2]; significant downregulation): 562
- number of genes: abolished nutrient effect ([2]; significant upregulation): 40
- number of genes: enhanced response to nutrients ([2]; significant upregulation): 103
- number of genes: new effect induced by LMW-DS ([2]; significant upregulation): 71
- number of genes: not different from control ([2]; significant upregulation): 75
- number of genes: total ([2]; significant upregulation): 289
- number of genes: abolished nutrient effect ([2]; total): 264
- number of genes: enhanced response to nutrients ([2]; total): 139
- number of genes: new effect induced by LMW-DS ([2]; total): 554
- number of genes: not different from control ([2]; total): 179
- number of genes: total ([2]; total): 1136
- amyloid-β production [2, 3]: preventing
- inhibition of glutamate production [2, 3]: not affected
- level of H2O2 [2, 3]: reduced
- Activation z-score ([2]; upstream regulator AGT): 2.631
- Predicted activation state relative D2 control ([2]; upstream regulator AGT): Activated
- Activation z-score ([2]; upstream regulator BMP4): 0.972
- Predicted activation state relative D2 control ([2]; upstream regulator BMP4): More activated relative to control
- Activation z-score ([2]; upstream regulator BMP6): 0.13
- Predicted activation state relative D2 control ([2]; upstream regulator BMP6): More activated relative to control
- Activation z-score ([2]; upstream regulator BMP7): 1.092
- Predicted activation state relative D2 control ([2]; upstream regulator BMP7): More activated relative to control
- Activation z-score ([2]; upstream regulator INHA): 0.588
- Predicted activation state relative D2 control ([2]; upstream regulator INHA): More activated relative to control
